Laboratory results from patent publication US20240390471A1, “COMPOUNDS AND ADJUVANT FORMULATIONS USEFUL IN PNEUMOCOCCAL VACCINES” (Merck Sharp & Dohme LLC, priority 2023, published 2024).

Key:
[1] = test system: S. pneumoniae serotypes of PCV13; details: PCV13 plus 3M-052 compared to PCV13 alone; cited from earlier work
human TLR7 = biological target: T1, human TLR7 (Homo sapiens, UniProt Q9NYK1); test: Cell-based TLR 7/8 assay, HEK-Blue TLR7 cells (SEAP reporter); details: based on Compound concentration only; Compounds formulated as SNEs; read-out: huTLR7 EC50 (converted)
T1 construct: host or cells: HEK-Blue 293 cells expressing human TLR7
T1 sequence (Q9NYK1 27-1049): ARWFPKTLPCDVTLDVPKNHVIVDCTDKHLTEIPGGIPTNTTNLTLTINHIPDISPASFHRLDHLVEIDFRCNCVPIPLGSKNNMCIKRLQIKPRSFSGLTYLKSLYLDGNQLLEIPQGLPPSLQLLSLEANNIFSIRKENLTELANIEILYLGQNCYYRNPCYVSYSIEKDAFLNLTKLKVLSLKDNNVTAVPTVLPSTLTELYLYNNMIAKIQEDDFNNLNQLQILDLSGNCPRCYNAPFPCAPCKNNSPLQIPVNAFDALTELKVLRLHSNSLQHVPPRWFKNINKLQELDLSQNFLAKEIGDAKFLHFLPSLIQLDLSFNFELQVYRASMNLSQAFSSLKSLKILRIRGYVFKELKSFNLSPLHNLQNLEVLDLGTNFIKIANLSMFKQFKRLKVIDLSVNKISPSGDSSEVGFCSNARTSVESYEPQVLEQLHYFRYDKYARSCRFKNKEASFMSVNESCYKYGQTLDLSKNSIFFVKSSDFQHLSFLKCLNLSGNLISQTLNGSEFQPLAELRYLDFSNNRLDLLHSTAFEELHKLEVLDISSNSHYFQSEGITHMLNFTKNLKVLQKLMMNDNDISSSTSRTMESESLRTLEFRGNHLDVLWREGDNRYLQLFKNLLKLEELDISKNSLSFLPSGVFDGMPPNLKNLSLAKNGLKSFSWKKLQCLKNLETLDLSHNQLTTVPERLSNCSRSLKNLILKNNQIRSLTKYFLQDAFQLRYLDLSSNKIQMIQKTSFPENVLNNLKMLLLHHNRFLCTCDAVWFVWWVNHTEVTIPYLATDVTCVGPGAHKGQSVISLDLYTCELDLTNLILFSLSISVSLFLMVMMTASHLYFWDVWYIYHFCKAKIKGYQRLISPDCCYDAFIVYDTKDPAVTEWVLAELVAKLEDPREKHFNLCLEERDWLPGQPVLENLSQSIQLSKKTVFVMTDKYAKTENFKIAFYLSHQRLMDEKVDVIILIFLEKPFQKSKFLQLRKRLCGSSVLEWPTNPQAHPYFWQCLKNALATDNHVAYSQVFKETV
Experimental: (§1) HEK-Blue™ TLR7 and TLR8 cells (InvivoGen) were designed to assess the stimulation of TLR7 and TLR8 by monitoring the activation of NF-κB and AP-1. Compound B-1-SNE samples were diluted 1:2 across an 8-point titration in diluent buffer histidine/PS-20 in a sterile V-bottom plate. 20 μL of samples were transferred to corresponding wells of two flat bottom assay plates. Media was aspirated from HEK-Blue™ human TLR 7 and TLR 8 cells (T-75 flasks) and gently rinsed with pre-warmed (37° C.) DPBS for a total volume of 5 mL/flask. The DPBS was gently removed from the cells and cells were gently manually dislodged and resuspended in 2 mL of DPBS. Cell assay suspensions were then prepared at approximately 2.2×10^5 cells per mL of HEK-Blue™ detection medium (InvivoGen). 180 μL of cell suspension in detection medium was added to each well of the two flat bottom assay plates containing the diluted Compound B-1-SNE samples for a final dilution of sample equaling 1:10 (180 μL of cell suspension in detection medium and 20 μL of sample). The cells were then incubated at 37° C. in 5% CO2 for 20 hrs. The reporter gene, NF-Kb, induces the production of secreted embryonic alkaline phosphatase (SEAP) when stimulated and can be monitored using the vendor supplied SEAP detection kit. SEAP colorimetric changes were read at an absorbance of 640 nm using a SpectroMax Stakmax plate reader. […] EC50 values were calculated based on total Compound B-1-SNE concentration using GraphPad Prism Software and analyzed using agonist vs. response variable slope (four parameters) least squares fit.
(§2) Further to the description in Example 10, a cell-based activation system was used to assess activity of the Compound-formulated nanoemulsion systems, prepared as described in examples, supra. HEK-Blue™ TLR7 and TLR8 cells (InvivoGen) were designed to assess the stimulation of TLR7 and TLR8 by monitoring the activation of NF-κB and AP-1. Compound-SNE samples were diluted 1:2 across an 8-point titration in diluent buffer histidine/PS-20 in a sterile V-bottom plate. 20 μL of samples were transferred to corresponding wells of two flat bottom assay plates. Media was aspirated from HEK-Blue™ human TLR 7 and TLR 8 cells (T-75 flasks) and gently rinsed with pre-warmed (37° C.) DPBS for a total volume of 5 mL/flask. The DPBS was gently removed from the cells and cells were gently manually dislodged and resuspended in 2 mL of DPBS. Cell assay suspensions were then prepared at approximately 2.2×10^5 cells per mL of HEK-Blue™ detection medium (InvivoGen). 180 μL of cell suspension in detection medium was added to each well of the two flat bottom assay plates containing the diluted Compound-SNE samples for a final dilution of sample equaling 1:10 (180 μL of cell suspension in detection medium and 20 μL of sample). The cells were then incubated at 37° C. in 5% CO2 for 20 hrs. The reporter gene, NF-Kb, induces the production of secreted embryonic alkaline phosphatase (SLAP) when stimulated and can be monitored using the vendor supplied SLAP detection kit. SLAP colorimetric changes were read at an absorbance of 640 nm using a SpectroMax Stakmax plate reader. EC50s were calculated based on Compound concentration only, not total Compound-SNE concentration (Table 6) using GraphPad Prism Software and analyzed using agonist vs. response variable slope (four parameters) least squares fit.

human TLR8 = biological target: T2, human TLR8 (Homo sapiens, UniProt Q9NR97); test: Cell-based TLR 7/8 assay, HEK-Blue TLR8 cells (SEAP reporter); details: based on Compound concentration only; Compounds formulated as SNEs; read-out: huTLR8 EC50 (converted)
T2 construct: host or cells: HEK-Blue 293 cells expressing human TLR8
T2 sequence (Q9NR97 27-1041): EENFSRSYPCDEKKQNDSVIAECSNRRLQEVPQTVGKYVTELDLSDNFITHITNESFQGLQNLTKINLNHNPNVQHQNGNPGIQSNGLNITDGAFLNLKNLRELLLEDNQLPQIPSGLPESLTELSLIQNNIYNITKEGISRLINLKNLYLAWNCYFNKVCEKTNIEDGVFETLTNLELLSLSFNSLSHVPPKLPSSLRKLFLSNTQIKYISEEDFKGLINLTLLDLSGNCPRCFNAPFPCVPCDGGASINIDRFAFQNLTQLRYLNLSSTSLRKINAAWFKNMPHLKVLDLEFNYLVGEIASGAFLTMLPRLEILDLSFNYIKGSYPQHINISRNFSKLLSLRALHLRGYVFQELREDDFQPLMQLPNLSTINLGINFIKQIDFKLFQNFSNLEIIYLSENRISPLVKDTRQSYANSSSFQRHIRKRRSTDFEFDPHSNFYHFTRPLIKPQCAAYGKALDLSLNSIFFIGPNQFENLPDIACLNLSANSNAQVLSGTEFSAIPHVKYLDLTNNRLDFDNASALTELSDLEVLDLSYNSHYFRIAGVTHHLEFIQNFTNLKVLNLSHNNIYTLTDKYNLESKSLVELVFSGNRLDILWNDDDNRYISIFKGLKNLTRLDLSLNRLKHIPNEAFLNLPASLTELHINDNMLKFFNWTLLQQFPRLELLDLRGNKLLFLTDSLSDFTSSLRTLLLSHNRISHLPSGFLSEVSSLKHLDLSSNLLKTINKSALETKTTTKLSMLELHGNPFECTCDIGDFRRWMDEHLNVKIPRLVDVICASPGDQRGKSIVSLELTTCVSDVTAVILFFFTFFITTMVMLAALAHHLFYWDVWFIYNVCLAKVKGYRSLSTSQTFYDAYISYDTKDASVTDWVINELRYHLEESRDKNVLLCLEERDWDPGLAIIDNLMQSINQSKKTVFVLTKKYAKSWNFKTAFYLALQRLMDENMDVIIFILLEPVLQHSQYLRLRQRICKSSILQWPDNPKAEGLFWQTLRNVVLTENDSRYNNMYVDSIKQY
Experimental: as §1, §2

Row | EC50 (human TLR7) | EC50 (human TLR8) | Compound | serotype specific antibody responses (binding titers and opsonophagocytic killing) [1]
1 |  |  | CCCCCCCCCCCCCCCCCC(=O)NCCCCOn1c(CCCC)nc2c(N)nc3ccccc3c21 [Compound 3M-052] | accelerated and enhanced serotype specific antibody responses
2 | 4.95 µM | 1.17 µM | CCCCCCCCCCCCCCCCCC(=O)NCCCCN(C)Cc1cc(OC)c(Cn2cc3nc(N)nc(NCCCC)c3n2)c(OC)c1 [Compound C-4, N-(4-((4-((5-amino-7-(butylamino)-2H-pyrazolo[4,3-d]pyrimidin-2-yl)methyl)-3,5-dimethoxybenzyl)(methyl)amino)butyl)stearamide] | 
3 | 7.53 µM | 0.454 µM | CCCCCCCCCCCCCCCCCC(=O)NCCCCC(=O)N1CCN(c2cc(OC)c(Cn3cc4nc(N)nc(N[C@H](CO)CCC)c4n3)c(OC)c2)CC1 [Compound A-2, (S)—N-(5-(4-(4-((5-amino-7-((1-hydroxypentan-2-yl)amino)-2H-pyrazolo[4,3-d]pyrimidin-2-yl)methyl)-3,5-dimethoxyphenyl)piperazin-1-yl)-5-oxopentyl)stearamide] | 
